Source: US20120100204A1, “TGF-Beta Stimulating Agent Compositions and Combinations” (TCP INNOVATIONS LTD, priority 2007, published 2012)

Columns and labels:
tgfb1 mRNA = tgfb1 mRNA level by quantitative PCR in human aortic vascular smooth muscle cells; assay type: cell-based; conditions: 24 hrs
Method: (1995) Cardiovasc. Res. 29:848-55). […] The cells were then incubated for either 24 hrs or 72 hrs depending on the experiment. All treatment conditions were established in triplicate. The level of mRNA for tgfb1, tgfb2 and tgfb3 were estimated by quantitative PCR. The media was removed and RNA was carefully prepared using the Ambion RNAqueous4PCR kit (Ambion#1914) in accordance with the manufacturer's instructions. The purity of the RNA and the quantity was assessed spectrophotometrically. […] This analysis results in both a gel-like image as well as electrophoretic data. Indications of RNA degradation are: (a) decreasing ratio of ribosomal bands (b) additional peaks bellow the ribosomal bands (c) Decrease in overall RNA signal (d) shift towards shorter fragments. All the mRNA samples used in the experiments presented here passed this RNA quality control step. Next, the RNA was converted to cDNA using the ABI High-Capacity cDNA Archive Kit, in accordance with manufacturer's instructions. […] Samples were vortexed to ensure thorough mixing. cDNA was aliquoted into ABI 384 well plates using a multi-channel pipette, 4.5 μl of sample into each well. Samples were assayed in triplicate (that is, nine determinations in total were made for each condition, being three separate assays on each of three replicate culture wells). The assay mix and Universal Master Mix were prepared and aliquoted across the 384 well plates 5.5 μl in each well, using a single channel pipette. The final composition of each reaction (10 μl) being: […] Universal Master Mix=5 μl; cDNA=4.5 μl. The plates were then heat sealed using Abgene clear seal strong plastic heat seals, and then cycled and scanned using the ABI 9700HT under the following conditions: 95° C. for 10 minutes to activate the AmpliTaq GOLD, then 40 cycles of: 95° C. for 15 sec (Denaturation), 60° C. for 60 […]). […] Quantitative PCR was performed using several primer/probe sets. […] We used both commercially available primer/probe sets (ABI Taqman pre-validated assays), using both available sets in the ABI database for tgfb1 and tgfb2, as well as the single available set for tgfb3. In addition, we used our own manual design probe/primer set for each of tgfb1, tgfb2 and tgfb3. For normalisation, we used TATA-binding protein (TBP) as the primary normalisation standard, with GAPDH as an alternative for confirmation, using ABI Taqman pre-validated probe/primer sets. […] Neither TBP nor GAPDH mRNA levels are affected by TGF-beta and are therefore equally suitable, however TBP was selected as the primary normalisation standard because the absolute level of mRNA in most cell types is similar to that of the TGF-beta isoforms, resulting in lower errors on calculating the ratio, and improving the power of the experiment. In all quantitative PCR experiments, several additional controls were included: firstly, a control for each sample is run with no reverse transcription to ensure the mRNA sample is not contaminated with genomic DNA (although the manual design probe/primer sets were all selected to cross an exon/exon boundary, ensuring no detectable amplicon is produced from genomic DNA templates). […] This control ensures that the results for the unknown samples are obtained in the linear range of the amplification process, and are therefore truly quantitative. Failure of either control led to the repeat of the entire experiment. Typically, the half maximal signal was obtained after 20-30 amplification cycles. […]

TGF-beta1 protein = assay: total TGF-beta1 protein in conditioned medium, Quantikine ELISA; assay type: cell-based, human; conditions: 24 hrs or 72 hrs; any dose tested (Tamoxifen up to 33 μM, aspirin up to 100 μM)
Method: The cells were cultured (37° C.; 5% CO2) in DMEM+20% foetal calf serum (FCS), and subcultured every 5 days at 1:2 dilution, using 0.02% trypsin/EDTA (Gibco).
For the experiments, the cells were subcultured into 12-well cluster plates at 1×10^5 cells/cm^2, and allowed to grow for 24 hrs. […] The cells were then incubated for either 24 hrs or 72 hrs depending on the experiment. All treatment conditions were established in triplicate.
TGF-beta1 protein levels in the medium was measured using the Quantikine ELISA kit (R&D Systems) in accordance with the manufacturer's instructions, except that the medium was pre-activated by addition of an equal volume of 2.7M HCl 10M Urea, and then neutralised by addition of the same volume of 1M HEPES 2M NaOH. […] Note that TGF-beta proteins are well known to interact with many different matrix proteins and cell surface proteins, including proteoglycans, low affinity type III receptors, fibronectin and collagen, and consequently the amount of TGF-beta protein in the medium may not represent the total amount synthesised by the cells, and a negative result in the assay for TGF-beta protein may represent a false negative.

TGF-beta1 = TGF-beta1 protein in the blood vessel wall, quantitative immunofluoresence; assay type: in vivo; conditions: apoE mice; for TGF-b1 staining: Aspirin 30 mg/kg/day, mean ± SD
From the text: (§1) Adult male apoE-deficient mice, back-crossed onto a C57B16 background for at least five generations, were randomised into groups of eight animals at 12 weeks of age, such that each group had similar average body weight. […] The amount of food eaten and the body weight of each mouse was monitored daily for the first week, and once per week thereafter. After 12 weeks of treatment, the mice were sacrificed by CO2 asphyxiation, and heart & lung blocks were excised, embedded in Cryo-M-bed (Bright Instruments, UK) without fixation and snap frozen in liquid nitrogen.
(§2) Sections were then prepared from the aortic root according to the Paigen Strategy (a defined sequence of cutting sections which allow reproducible comparison between animals; see for example Grainger et al. (1995) Nature Med. 1:1067-72 and the references therein). 4 μm crysosections were cut using a motordriven cryotome (Bright Instruments) and collected onto poly-L-lysine coated glass microscope slides, then fixed in ice-cold acetone for 90 secs, allowed to air dry and stored at −20° C. until analysed.

fibrin(ogen) = fibrin(ogen) deposition into the blood vessel wall, quantitative immunofluoresence
From the text: as §1, §2
The level of fibrin or fibrinogen deposited into the vessel wall was also estimated by quantitative immunofluoresence, using a method identical to that for TGF-beta1, except that the primary antibody was sheep anti-fibrin(ogen) (Chemicon; 2 μg/ml) and the secondary antibody was donkey anti-sheep IgG minimum cross-reactivity, FITC labelled (Jackson Immunoresearch), as previously described (Thromb Res. 2001 Apr. 1; 102(1):71-80).
Adult male apoE-deficient mice were treated, in groups of 8, with fish oil (Seven Seas, UK), aspirin or both agents simultaneously from 12 weeks of age until 24 weeks of age, exactly as described in Example 2.
The levels of TGF-beta1 and fibrin(ogen) in the vessel wall were determined by quantitative immunofluoresence, exactly as described in example 2.

effect on fibrin(ogen) deposition into the blood vessel wall (in words) (fibrin(ogen); mouse, in vivo) | SMILES | Level of mRNA, estimated by qPCR: tgfb1 (tgfb1 mRNA; 3.3 μM T, normalised to TBP, vs vehicle) [fold-change] | Level of mRNA, estimated by qPCR: tgfb1 (tgfb1 mRNA; 10 μM T) [fold-change] | Level of mRNA, estimated by qPCR: tgfb1 (tgfb1 mRNA; 33 μM T, listed as T) [fold-change] | Level of mRNA, estimated by qPCR: tgfb1 (tgfb1 mRNA; 33 μM T, listed as TMX) | doses that significantly increased tgfb1 mRNA (tgfb1 mRNA) [µM] | effect on total TGF-beta1 protein levels in conditioned medium (TGF-beta1 protein) | TGF-b1 staining (TGF-beta1; 12 weeks, TMX 1 mg/kg/day) [AU] | level of TGF-beta1 in the blood vessel wall (in words) (TGF-beta1; Example 2) | Fibrin(ogen) staining (fibrin(ogen); apoE mice, 12 weeks, TMX 1 mg/kg/day, Aspirin 30 mg/kg/day, mean ± SD) [AU] | increase of fibrin(ogen) deposition into the vessel wall (fibrin(ogen); apoE mice, Tamoxifen 1 mg/kg/day, vs control) [%] | Level of mRNA, estimated by qPCR: tgfb1 (tgfb1 mRNA; 10 μM A) [fold-change] | Level of mRNA, estimated by qPCR: tgfb1 (tgfb1 mRNA; 33 μM A) [fold-change] | Level of mRNA, estimated by qPCR: tgfb1 (tgfb1 mRNA; 100 μM A) [fold-change] | effect on the mRNA levels of any of the three isoforms of TGF-beta (tgfb1 mRNA; any concentration tested (up to 100 μM)) | level of TGF-beta1 in the blood vessel wall (in words) (TGF-beta1; Example 3) | TGF-b1 staining (TGF-beta1; Fish oils 100 mg/kg/day) [AU]
– | CC/C(=C(\c1ccccc1)c1ccc(OCCN(C)C)cc1)c1ccccc1 [Tamoxifen] | 0.95 ± 0.16 | 1.27 ± 0.09 | 1.41 ± 0.08 | approximately 1.4 fold-change | ≥ 10 | no statistically significant effect | 94 ± 9 | increased | 151 ± 7 | 23 | – | – | – | – | – | –
significantly reduced | CC(=O)Oc1ccccc1C(=O)O [Aspirin, acetylsalicylic acid] | – | – | – | – | – | no statistically significant effect | 65 ± 11 | no effect | – | – | 1.01 ± 0.04 | 0.93 ± 0.11 | 1.06 ± 0.08 | no statistically significant effect | no effect | 65 ± 11
